From patent publication EP4781984A1 (Beyang Therapeutics Co., Ltd., priority 2023, dated 2025) come the findings set out here.

In brackets after ≈: the same amount, converted by molar mass.

Data set [1] deals with T1, EGFR (Homo sapiens, UniProt P00533).
T1 construct: purchased Carna 08-115
Kind of data set: Kinase inhibitory activity, Mobility Shift Assay (EGFR). In kind it is biochemical. As for the experimental part:
(§1) Assay for Inhibitory Activity of Compounds Against VEGFR and EGFR Kinases
(§2) This assay directly monitors the inhibitory activity of compounds on kinase phosphorylation by measuring non-phosphorylated and phosphorylated substrates in the kinase reaction using Mobility Shift Assays/IMAP™ analysis. Table 2. Reagents and Instruments
(§3) Kinase and DTT were added to 1X kinase buffer to form a 2.5X kinase solution; 10 µL of the 2.5X kinase solution was transferred to a 384-well reaction plate, and 1X kinase buffer was added to the negative control wells. The plate was incubated at room temperature for 10 minutes; FAM-labeled peptide, MgCl2, ATP, and other reagents were added to 1X kinase buffer to form a 2.5X substrate solution; 10 µL of the above 2.5X substrate solution was transferred to the 384-well reaction plate; the plate was incubated at 28°C for varying times, and then 25 µL of stop solution was added to the 384-well reaction plate to terminate the reaction. Conversion rate data were read on a CaliperEZ Reader II. […] IC50 values were fitted using XLFit excel add-in version 5.4.0.8. Y = Bottom + (Top−Bottom)/(1 + […]) [formula]
(§4) X is the log value of compound concentration, Y is the inhibition rate (% inhibition).

Data set [2] deals with melanin. Kind of data set: Compound binding to melanin. Type of data set: in vitro ADME. The note with it: cuttlefish (Sepia officinalis), melanin suspension (1 mg/mL), percentage of free drug (not bound to melanin), 2 µM compound, melanin 1 mg/mL in PBS pH 7.4, 37°C. From the text: Detection of Compound Binding to Melanin
Pigmented ocular tissues contain melanin within intracellular melanosomes. Drugs bind to melanin to varying degrees, from no binding to extensive binding. Therefore, melanin binding is an important characteristic affecting ocular drug delivery and biodistribution. The ability of compounds to bind to melanin must be considered in ocular drug development.
Melanin derived from cuttlefish (Sepia officinalis) melanin was purchased from Sigma Aldrich (St Louis, MO).
First, prepare a 1 mg/mL melanin suspension in PBS (pH 7.4). As a matrix washing step, suspended particles were centrifuged at 3000 rpm for 5 minutes. The resulting pellet was resuspended in fresh PBS buffer, heated to 37°C with continuous shaking, and incubated for 1 hour. Accurately pipette 2 microliters of test compound stock solution (0.1 mM) into 98 microliters of melanin suspension (1 mg/mL), resulting in a final incubation concentration of 2 µM. Similarly, accurately pipette 2 microliters of stock solution (0.1 mM) into 98 microliters of PBS buffer (containing 0.1% BSA) as a blank control sample. Samples were incubated at 37°C for 2 hours on a shaker (80-90 rpm). Then centrifuged at room temperature. 50 microliters of supernatant was aspirated and added to 50 microliters of precipitation agent (containing internal standard). All samples above were subjected to protein precipitation, centrifuged, the supernatant was taken, diluted with water (if necessary), and then injected for analysis. Simultaneously, high-binding compounds Sunitinib and chloroquine, and the low-binding compound celecoxib were measured as positive controls. An LC-MS/MS analytical method for determining compound concentration was established. The ratio of analyte/internal standard peak areas (Aanalyte/AIS) measured in the samples, calibrated by the dilution factor, was used as the surrogate concentration for data processing. The binding rate of the compound to melanin (Fb) is calculated by the formula: Fb = 100−(Ctest)/(Ccontrol) × 100% [formula]
Ctest is the drug concentration of the compound in the melanin incubation sample or the peak area ratio of the test compound to the internal standard. Ccontrol is the drug concentration of the compound in the blank control sample or the peak area ratio of the test compound to the internal standard. Percentage of free drug (Fu%) = 100 - Fb The binding rates of the compounds of the present invention to melanin are shown in the table below: Table 11. Binding Rate of Compounds to Melanin

Data set [3] deals with T2, VEGFR2 (Homo sapiens, UniProt P35968).
T2 construct: purchased Carna 08-191
Kind of data set: Kinase inhibitory activity, Mobility Shift Assay (VEGFR2). In kind it is biochemical. As for the experimental part:
as §1, §2, §3, §4

Data set [4] is described as follows: Thermodynamic solubility test. Type of data set: physicochemical. The note with it: buffer solution, aqueous buffer, thermodynamic from solid; thermodynamic solubility, room temperature, 8 hours shaking; buffers pH 2.0, 6.5, 7.4 used, pH of the tabulated value not given. As to the method: Solubility Test of Compounds
Table 9. Reagents and Instruments
After sonication for 10 minutes, they were fixed on a shaker and shaken at room temperature for 8 hours. After shaking, they were sonicated for 10 minutes and centrifuged at 13000 rpm for 15 minutes. 0.1 mL of supernatant was aspirated into a new tube, rinsed with 5 mL of buffer by shaking, and the liquid was discarded. 0.5 mL of supernatant was transferred again to a new tube, centrifuged at 13000 rpm for 15 minutes, and the supernatant was taken (diluted with water if necessary) for LC-MS injection analysis. Sample concentrations were quantified using a 3-5 point calibration curve.

T1 sequence (P00533 25-1210): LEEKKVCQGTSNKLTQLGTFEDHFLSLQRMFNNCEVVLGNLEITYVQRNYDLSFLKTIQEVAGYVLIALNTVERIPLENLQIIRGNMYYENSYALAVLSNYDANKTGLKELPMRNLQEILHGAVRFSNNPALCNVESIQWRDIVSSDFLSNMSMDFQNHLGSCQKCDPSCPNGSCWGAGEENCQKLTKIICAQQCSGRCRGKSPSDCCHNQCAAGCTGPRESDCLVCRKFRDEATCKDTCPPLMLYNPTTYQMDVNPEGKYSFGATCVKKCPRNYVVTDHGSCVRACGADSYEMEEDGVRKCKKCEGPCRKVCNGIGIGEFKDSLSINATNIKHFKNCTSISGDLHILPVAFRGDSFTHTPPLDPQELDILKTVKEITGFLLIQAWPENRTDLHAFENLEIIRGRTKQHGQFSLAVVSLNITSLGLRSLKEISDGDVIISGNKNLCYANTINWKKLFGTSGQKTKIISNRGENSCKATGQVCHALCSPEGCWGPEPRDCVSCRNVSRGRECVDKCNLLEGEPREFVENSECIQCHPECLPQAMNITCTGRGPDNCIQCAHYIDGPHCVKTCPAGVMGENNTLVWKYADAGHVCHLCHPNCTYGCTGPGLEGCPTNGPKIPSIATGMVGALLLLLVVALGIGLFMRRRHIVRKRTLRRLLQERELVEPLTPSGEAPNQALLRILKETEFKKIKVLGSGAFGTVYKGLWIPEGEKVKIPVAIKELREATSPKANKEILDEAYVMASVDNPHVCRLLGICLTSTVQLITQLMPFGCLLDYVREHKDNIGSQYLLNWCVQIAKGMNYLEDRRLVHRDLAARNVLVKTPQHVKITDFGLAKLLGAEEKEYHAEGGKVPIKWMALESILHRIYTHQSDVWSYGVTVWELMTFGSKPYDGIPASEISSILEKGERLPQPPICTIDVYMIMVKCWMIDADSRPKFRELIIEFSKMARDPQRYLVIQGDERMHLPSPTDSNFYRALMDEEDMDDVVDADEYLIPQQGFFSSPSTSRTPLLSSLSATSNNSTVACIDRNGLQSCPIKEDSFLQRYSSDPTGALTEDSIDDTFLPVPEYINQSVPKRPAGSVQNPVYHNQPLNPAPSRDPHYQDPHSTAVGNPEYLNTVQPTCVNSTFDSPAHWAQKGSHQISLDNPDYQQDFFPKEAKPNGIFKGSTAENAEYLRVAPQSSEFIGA
T2 sequence (P35968 20-1356): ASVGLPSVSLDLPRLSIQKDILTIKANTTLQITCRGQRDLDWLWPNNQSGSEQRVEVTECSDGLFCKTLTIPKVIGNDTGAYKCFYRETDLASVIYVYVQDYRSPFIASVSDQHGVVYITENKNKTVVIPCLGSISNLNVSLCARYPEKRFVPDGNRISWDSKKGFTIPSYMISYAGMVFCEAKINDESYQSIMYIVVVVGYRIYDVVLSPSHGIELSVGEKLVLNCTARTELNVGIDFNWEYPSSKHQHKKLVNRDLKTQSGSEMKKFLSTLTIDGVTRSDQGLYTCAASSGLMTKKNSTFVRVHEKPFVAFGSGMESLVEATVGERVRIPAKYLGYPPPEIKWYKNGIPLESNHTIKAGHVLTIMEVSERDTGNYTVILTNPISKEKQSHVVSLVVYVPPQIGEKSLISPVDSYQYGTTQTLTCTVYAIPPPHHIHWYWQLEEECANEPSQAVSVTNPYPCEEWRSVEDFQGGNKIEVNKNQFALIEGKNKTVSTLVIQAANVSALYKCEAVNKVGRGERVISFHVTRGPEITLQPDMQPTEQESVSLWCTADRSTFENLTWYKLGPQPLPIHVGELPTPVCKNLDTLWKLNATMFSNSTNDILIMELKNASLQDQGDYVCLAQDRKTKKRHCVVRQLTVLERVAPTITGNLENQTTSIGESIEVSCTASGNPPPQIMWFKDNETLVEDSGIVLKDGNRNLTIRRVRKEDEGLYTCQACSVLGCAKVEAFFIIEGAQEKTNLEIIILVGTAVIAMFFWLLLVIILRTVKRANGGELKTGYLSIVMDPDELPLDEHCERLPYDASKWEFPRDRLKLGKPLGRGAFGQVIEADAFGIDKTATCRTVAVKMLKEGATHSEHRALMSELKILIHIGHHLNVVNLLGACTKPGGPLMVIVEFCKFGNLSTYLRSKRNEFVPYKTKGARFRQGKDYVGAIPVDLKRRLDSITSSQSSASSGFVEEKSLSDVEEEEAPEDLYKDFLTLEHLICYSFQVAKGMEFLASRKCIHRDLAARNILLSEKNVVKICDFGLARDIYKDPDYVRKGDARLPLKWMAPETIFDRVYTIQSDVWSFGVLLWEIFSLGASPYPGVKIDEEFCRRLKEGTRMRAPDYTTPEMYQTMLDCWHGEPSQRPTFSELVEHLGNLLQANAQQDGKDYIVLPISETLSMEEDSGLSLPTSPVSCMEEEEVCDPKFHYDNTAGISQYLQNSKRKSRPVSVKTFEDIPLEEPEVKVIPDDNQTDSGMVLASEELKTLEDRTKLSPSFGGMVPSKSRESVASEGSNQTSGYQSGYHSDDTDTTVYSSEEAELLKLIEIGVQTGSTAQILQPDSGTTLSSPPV

In general, IC50 refers to the concentration at which inhibition is half-maximal. In general, fraction unbound refers to free concentration divided by total concentration. Read a low fraction unbound as extensive binding. As for `O=C(NC1CC1)c1cc(F)ccc1Sc1ccc2c(/C=C/c3cc(OCCN4CCCC4)ccn3)n[nH]c2c1` [Compound I-118], the IC50 in data set [1] was above 60 µM. The molecule further showed a fraction unbound at 2 h, 2 µM in data set [2] of at most 0.01.
Consider `CCN(CC)CCc1ccc(/C=C/c2n[nH]c3cc(Sc4cc(F)ccc4C(=O)NC4CC4)ccc23)nc1` [Compound I-108], for which the IC50 in data set [3] was at most 1 nM.
The term solubility denotes the concentration that dissolves in the medium under given conditions. A higher solubility goes with a readily soluble substance. For the molecule `CCN(CC)CCc1ccc(/C=C/c2n[nH]c3cc(Sc4ccc(F)cc4C(=O)NC4CC4)ccc23)nc1` [Compound I-109], the IC50 in data set [3] is at most 1 nM. The molecule also had a solubility at 8 h in data set [4] of 1950 µg/mL (≈ 3680 µM). The same molecule yielded a fraction unbound at 2 h, 2 µM in data set [2] above 0.05.
Consider `O=C(NC1CC1)c1ccccc1Sc1ccc2c(/C=C/c3cccc(CN4CCCC4)n3)n[nH]c2c1` [Compound I-117], for which the IC50 in data set [1] is above 60 µM. In addition, in data set [2], the fraction unbound at 2 h, 2 µM lay within 0.01 to 0.05.
Take `O=C(NC1CC1)c1ccc(F)cc1Sc1ccc2c(/C=C/c3ccc(CN4CCCC4)cn3)n[nH]c2c1` [Compound I-79]: the IC50 in data set [3] is at most 1 nM. Also, in data set [4], the concentration in solution (solubility at 8 h) came to 80.4 µg/mL (≈ 157 µM). Also, the fraction unbound at 2 h, 2 µM in data set [2] is above 0.05.
Take `O=C(NC1CC1)c1ccccc1Sc1ccc2c(C#Cc3ccc(OCCN4CCCC4)cn3)n[nH]c2c1` [Compound I-139]: the IC50 in data set [1] is above 60 µM.
In the case of `CCN(CC)Cc1ccc(/C=C/c2n[nH]c3cc(Sc4c(F)cccc4C(=O)NC4CC4)ccc23)nc1` [Compound I-85], the figures for the IC50 in data set [3] and in data set [1] were 1 to 10 nM and 6 to 60 µM, respectively.
In the case of `CCNC(=O)c1cccc(F)c1Sc1ccc2c(/C=C/c3cc(CCCN4CCCC4)ccn3)n[nH]c2c1` [Compound I-116, N-ethyl-3-fluoro-2-({3-[(E)-2-{4-[3-(pyrrolidin-1-yl)propyl]pyridin-2-yl}ethenyl]-1H-indazol-6-yl}sulfanyl)benzamide], the IC50 in data set [1] was above 60 µM. The free fraction (fraction unbound) at 2 h, 2 µM in data set [2] was 0.01 to 0.05.
`CCNC(=O)c1ccc(F)cc1Sc1ccc2c(/C=C/c3cnn(CCCN4CCCC4)c3)n[nH]c2c1` [Compound I-103, N-ethyl-4-fluoro-2-({3-[(E)-2-{1-[3-(pyrrolidin-1-yl)propyl]-1H-pyrazol-4-yl}ethenyl]-1H-indazol-6-yl}sulfanyl)benzamide]: the IC50 in data set [3] was at most 1 nM.
For the molecule `O=C(NC1CC1)c1cc(F)ccc1Sc1ccc2c(/C=C/c3cc(CCCN4CCCC4)ccn3)n[nH]c2c1` [Compound I-119], the IC50 in data set [3] was at most 1 nM; in data set [1] it was above 60 µM.
In the case of `CCNC(=O)c1cc(F)ccc1Sc1ccc2c(/C=C/c3cc(CCCN4CCCC4)ccn3)n[nH]c2c1` [Compound I-122], in data set [1], the 50% inhibitory concentration (IC50) was above 60 µM.
As to `O=C(NC1CC1)c1ccccc1Sc1ccc2c(/C=C/c3cccc(CCN4CCCC4)n3)n[nH]c2c1` [Compound I-134], the figures for the IC50 in data set [3] and in data set [1] were 1 to 10 nM and above 60 µM, respectively.
In the same order, the values of `CCNC(=O)c1ccc(Sc2ccc3c(/C=C/c4ccc(CN(CC)CC)cn4)n[nH]c3c2)cc1F` [Compound I-87, 4-({3-[(E)-2-{5-[(diethylamino)methyl]pyridin-2-yl}ethenyl]-1H-indazol-6-yl}sulfanyl)-N-ethyl-2-fluorobenzamide] are above 100 nM and above 60 µM.
As for `O=C(NC1CC1)c1cccc(F)c1Sc1ccc2c(/C=C/c3cccc(CCN4CCCC4)n3)n[nH]c2c1` [Compound I-128], the IC50 in data set [1] was above 60 µM.
`CNC(=O)c1ccccc1Sc1ccc2c(/C=C/c3ccnn3CCN3CCCC3)n[nH]c2c1` [Compound I-25]: the IC50 in data set [3] was above 100 nM. Moreover, the solubility at 8 h in data set [4] came out at 216 µg/mL (≈ 457 µM). This molecule also showed an unbound share (fraction unbound) at 2 h, 2 µM in data set [2] above 0.05.
With `CCNC(=O)c1cccc(F)c1Sc1ccc2c(/C=C/c3cccc(CN4CCCC4)n3)n[nH]c2c1` [Compound I-113, N-ethyl-3-fluoro-2-({3-[(E)-2-{6-[(pyrrolidin-1-yl)methyl]pyridin-2-yl}ethenyl]-1H-indazol-6-yl}sulfanyl)benzamide], the IC50 in data set [3] was above 100 nM.
In the case of `O=C(NC1CC1)c1ccccc1Nc1ccc2c(/C=C/c3ccc(CN4CCCC4)cn3)n[nH]c2c1` [Compound I-82, N-cyclopropyl-2-({3-[(E)-2-{5-[(pyrrolidin-1-yl)methyl]pyridin-2-yl}ethenyl]-1H-indazol-6-yl}amino)benzamide], in data set [3], the IC50 was at most 1 nM. Also, in data set [4], the concentration in solution (solubility at 8 h) was 294 µg/mL (≈ 614 µM). The fraction unbound at 2 h, 2 µM in data set [2] lay within 0.01 to 0.05.
As for `CN1CCC(CCOc2ccc(/C=C/c3n[nH]c4cc(Sc5ccccc5C(=O)NC5CC5)ccc34)nc2)CC1` [Compound I-42], the 50% inhibitory concentration (IC50) in data set [1] is above 60 µM. In data set [2], this molecule registered a fraction unbound at 2 h, 2 µM of 0.01 to 0.05.
The matching figures for `CNC(=O)c1ccccc1Sc1ccc2c(/C=C/c3ccc(OCCN4CCCC4)nc3)n[nH]c2c1` [Compound I-19, N-methyl-2-((3-((E)-2-(6-(2-(pyrrolidin-1-yl)ethoxy)pyridin-3-yl)ethenyl)-1H-indazol-6-yl)thio)benzamide]: above 60 µM and 0.01 to 0.05.
As to `CNC(=O)c1ccccc1Sc1ccc2c(/C=C/c3cncc(OCCN4CCCC4)c3)n[nH]c2c1` [Compound I-22], the 50% inhibitory concentration (IC50) in data set [1] is above 60 µM. This molecule also gave a solubility at 8 h in data set [4] of 57.4 µg/mL (≈ 115 µM). This molecule displayed a fraction unbound at 2 h, 2 µM in data set [2] of 0.01 to 0.05.
Take `O=C(NC1CC1)c1cc(F)ccc1Sc1ccc2c(/C=C/c3cc(CCN4CCCC4)ccn3)n[nH]c2c1` [Compound I-135]: the IC50 in data set [1] was above 60 µM.
Consider `O=C(NC1CC1)c1cc(F)ccc1Sc1ccc2c(/C=C/c3cccc(CN4CCCC4)n3)n[nH]c2c1` [Compound I-138], for which the IC50 in data set [1] was above 60 µM.
With `CCNC(=O)c1cccc(F)c1Sc1ccc2c(/C=C/c3cccc(CCN4CCCC4)n3)n[nH]c2c1` [Compound I-129], the IC50 in data set [1] was above 60 µM.
On to `O=C(NC1CC1)c1cc(F)ccc1Sc1ccc2c(/C=C/c3cccc(CCN4CCCC4)n3)n[nH]c2c1` [Compound I-136], for which, in data set [1], the IC50 is above 60 µM.
In data set [4], `CNC(=O)c1ccccc1Sc1ccc2c(/C=C/c3cccc(OCCN4CCCC4)c3)n[nH]c2c1` [Compound I-15] showed a solubility at 8 h of 78.8 µg/mL (≈ 158 µM). Further, the fraction unbound at 2 h, 2 µM in data set [2] was 0.01 to 0.05.
As to `CCN(CC)Cc1ccc(/C=C/c2n[nH]c3cc(Sc4c(F)cccc4C(=O)NC)ccc23)nc1` [Compound I-91], the concentration in solution in data set [4] (solubility at 8 h) came to 1650 µg/mL (≈ 3370 µM). This molecule displayed a fraction unbound at 2 h, 2 µM in data set [2] of 0.01 to 0.05.
Consider `O=C(NC1CC1)c1cc(F)ccc1Sc1ccc2c(/C=C/c3cnn(CCCN4CCCC4)c3)n[nH]c2c1` [Compound I-46], for which, in data set [3], the concentration for half-maximal inhibition (IC50) was at most 1 nM.
Turning to `O=C(NC1CC1)c1cc(F)ccc1Sc1ccc2c(/C=C/c3cc(CN4CCCC4)ccn3)n[nH]c2c1` [Compound I-137], the 50% inhibitory concentration (IC50) in data set [1] was above 60 µM.
The same measure, in the same setting: with `O=C(NC1CC1)c1cccc(F)c1Sc1ccc2c(/C=C/c3cc(CCCN4CCCC4)ccn3)n[nH]c2c1` [Compound I-123] the figure was above 60 µM; with `O=C(NC1CC1)c1ccccc1Sc1ccc2c(/C=C/c3cc(CCN4CCCC4)ccn3)n[nH]c2c1` [Compound I-133, N-cyclopropyl-2-((3-((E)-2-(4-(2-(pyrrolidin-1-yl)ethyl)pyridin-2-yl)ethenyl)-1H-indazol-6-yl)thio)benzamide], above 60 µM.
Consider `CNC(=O)c1cc(F)ccc1Sc1ccc2c(/C=C/c3cnn(CCCN4CCCC4)c3)n[nH]c2c1` [Compound I-106], for which, in data set [1], the IC50 lay within 6 to 60 µM. This molecule also returned a fraction unbound at 2 h, 2 µM in data set [2] above 0.05.
